According to ChEMBL document CHEMBL1134658 (J Med Chem, 2001):

What was measured:
Cytochrome P450 2C19 = Cytochrome P450 2C19 (Homo sapiens, UniProt P33261); assay: Inhibitory effect on human recombinant liver cytochrome P450 2C19 expressed in yeast strain
Cytochrome P450 2C8 = target: T1, Cytochrome P450 2C8 (Homo sapiens, UniProt P10632); assay: Inhibitory effect on human recombinant liver Cytochrome P450 2C8 expressed in yeast strain
T1 sequence (P10632 whole entry): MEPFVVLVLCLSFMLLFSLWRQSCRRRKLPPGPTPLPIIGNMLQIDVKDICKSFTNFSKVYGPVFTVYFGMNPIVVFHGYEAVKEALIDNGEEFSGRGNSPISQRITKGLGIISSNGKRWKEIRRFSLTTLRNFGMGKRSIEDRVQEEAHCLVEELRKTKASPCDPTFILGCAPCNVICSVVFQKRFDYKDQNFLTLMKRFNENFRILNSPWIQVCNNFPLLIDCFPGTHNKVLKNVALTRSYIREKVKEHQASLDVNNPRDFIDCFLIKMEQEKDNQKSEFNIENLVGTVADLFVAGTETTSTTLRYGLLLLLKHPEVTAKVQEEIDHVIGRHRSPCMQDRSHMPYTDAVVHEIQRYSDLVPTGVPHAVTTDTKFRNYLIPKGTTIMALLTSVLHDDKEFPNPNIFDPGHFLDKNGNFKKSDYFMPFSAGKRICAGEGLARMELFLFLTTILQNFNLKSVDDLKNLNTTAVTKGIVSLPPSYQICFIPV

Cytochrome P450 2C9 = Cytochrome P450 2C9 (Homo sapiens, UniProt P11712); assay: Inhibitory effect on human recombinant liver cytochrome P450 2C9 expressed in yeast strain
Cytochrome P450 2C9, sequence (P11712 whole entry): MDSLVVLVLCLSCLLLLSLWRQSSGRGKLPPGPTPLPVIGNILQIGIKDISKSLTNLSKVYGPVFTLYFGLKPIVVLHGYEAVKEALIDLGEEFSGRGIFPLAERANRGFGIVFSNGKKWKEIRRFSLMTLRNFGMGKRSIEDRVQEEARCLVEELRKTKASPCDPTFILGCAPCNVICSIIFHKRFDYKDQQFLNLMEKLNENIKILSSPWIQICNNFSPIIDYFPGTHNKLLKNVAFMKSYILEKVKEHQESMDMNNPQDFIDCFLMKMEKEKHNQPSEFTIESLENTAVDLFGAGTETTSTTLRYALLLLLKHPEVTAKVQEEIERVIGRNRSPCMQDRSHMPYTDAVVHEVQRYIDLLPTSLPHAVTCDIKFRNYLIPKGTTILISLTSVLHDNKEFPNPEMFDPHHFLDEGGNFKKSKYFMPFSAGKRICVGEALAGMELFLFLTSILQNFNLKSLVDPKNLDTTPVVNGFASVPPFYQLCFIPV

Cytochrome P450 2C18 = target: T2, Cytochrome P450 2C18 (Homo sapiens, UniProt P33260); assay: Inhibitory effect on human recombinant liver cytochrome P450 2C18 expressed in yeast strain
T2 sequence (P33260 whole entry): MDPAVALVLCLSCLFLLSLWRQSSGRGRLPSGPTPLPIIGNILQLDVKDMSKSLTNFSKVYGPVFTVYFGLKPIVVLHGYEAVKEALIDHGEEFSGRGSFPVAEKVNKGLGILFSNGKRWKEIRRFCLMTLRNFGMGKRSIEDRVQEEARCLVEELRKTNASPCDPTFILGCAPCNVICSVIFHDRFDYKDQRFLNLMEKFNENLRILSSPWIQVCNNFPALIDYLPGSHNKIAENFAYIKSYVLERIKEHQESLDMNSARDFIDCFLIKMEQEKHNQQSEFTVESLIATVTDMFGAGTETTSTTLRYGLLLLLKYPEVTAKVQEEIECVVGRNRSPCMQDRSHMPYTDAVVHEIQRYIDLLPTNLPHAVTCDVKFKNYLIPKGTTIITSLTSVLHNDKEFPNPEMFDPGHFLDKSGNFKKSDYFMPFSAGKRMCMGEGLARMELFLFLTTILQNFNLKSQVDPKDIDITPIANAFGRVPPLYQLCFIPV

Cytochrome P450 2C19, sequence (P33261 whole entry): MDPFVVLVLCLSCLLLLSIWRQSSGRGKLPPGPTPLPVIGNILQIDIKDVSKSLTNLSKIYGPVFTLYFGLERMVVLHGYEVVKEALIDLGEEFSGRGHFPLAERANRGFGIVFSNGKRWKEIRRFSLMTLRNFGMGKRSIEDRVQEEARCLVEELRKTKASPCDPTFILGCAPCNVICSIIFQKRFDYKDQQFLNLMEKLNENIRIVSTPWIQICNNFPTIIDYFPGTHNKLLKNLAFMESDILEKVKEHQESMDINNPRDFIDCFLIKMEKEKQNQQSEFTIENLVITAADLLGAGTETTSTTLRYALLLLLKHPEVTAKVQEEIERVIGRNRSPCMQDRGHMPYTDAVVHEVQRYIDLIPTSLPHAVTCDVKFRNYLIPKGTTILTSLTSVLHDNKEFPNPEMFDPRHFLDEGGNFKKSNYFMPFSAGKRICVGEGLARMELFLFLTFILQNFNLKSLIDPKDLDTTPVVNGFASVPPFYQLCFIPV

IC50 (Cytochrome P450 2C19) [µM]	IC50 (Cytochrome P450 2C8) [µM]	IC50 (Cytochrome P450 2C9) [µM]	IC50 (Cytochrome P450 2C18) [µM]	SMILES
250	8	55	8	CCCN(c1ccnn1-c1ccccc1)S(=O)(=O)c1ccc(N)cc1
45	15	55	7	Nc1ccc(S(=O)(=O)N(Cc2ccccc2)c2ccnn2-c2ccccc2)cc1
	22		30	Nc1ccc(S(=O)(=O)N(CCCO)c2ccnn2-c2ccccc2)cc1
10	15	20	20	CCCN(c1ccnn1-c1ccccc1)S(=O)(=O)c1ccc(C)cc1
165	> 250	20	9	O=[N+]([O-])c1cccc(-c2ccc(S(=O)(=O)N(CCO)c3ccnn3-c3ccccc3)cc2)c1
130	30	80	3	CC(C)N(c1ccnn1-c1ccccc1)S(=O)(=O)c1ccc(N)cc1
	> 250		4	O=[N+]([O-])c1cccc(-c2ccc(S(=O)(=O)N(CCCCO)c3ccnn3-c3ccccc3)cc2)c1
	> 250		8	O=[N+]([O-])c1cccc(-c2ccc(S(=O)(=O)N(CCCO)c3ccnn3-c3ccccc3)cc2)c1
225	13	90	7	CCN(c1ccnn1-c1ccccc1)S(=O)(=O)c1ccc(N)cc1
	> 250		65	NCCc1ccc(S(=O)(=O)N(CCCO)c2ccnn2-c2ccccc2)cc1
60	4	50	6	CCCCN(c1ccnn1-c1ccccc1)S(=O)(=O)c1ccc(N)cc1
20	180	10	12	Cc1ccc(S(=O)(=O)N(C)c2ccnn2-c2ccccc2)cc1
450	10	1	150	C=CCc1ccc(S(=O)(=O)Nc2ccnn2-c2ccccc2)cc1
	8		20	Nc1cccc(-c2ccc(S(=O)(=O)Nc3ccnn3-c3ccccc3)cc2)c1
20	20	> 200	10	C=CCc1ccc(S(=O)(=O)N(C)c2ccnn2-c2ccccc2)cc1
200	50	100	15	CN(c1ccnn1-c1ccccc1)S(=O)(=O)c1ccc(N)cc1
	130		60	Nc1ccc(S(=O)(=O)Nc2ccnn2-c2ccccc2)cc1 [SULFAPHENAZOLE]
